The source of these data is PMC8943889, “Synthetic studies with the brevicidine and laterocidine lipopeptide antibiotics including analogues with enhanced properties and in vivo efficacy” (Chemical Science, 2022).

Type in all cases: cell-based
The subject of one test is A. baumannii MDR. Here is the method:
(§1) Minimum inhibitory concentrations (MICs) were determined by broth microdilution according to CLSI guidelines in triplicate. Blood agar plates were inoculated with glycerol stocks of E. coli ATCC 25922, E. coli MCR-1 (clinical isolate from Utrecht Medical Centre, NL), E. coli EQAS MCR-2 (clinical isolate from Wageningen University and Research, NL), K. pneumoniae ATCC 11228, K. pneumoniae ATCC 13883, K. pneumonia 2048 (clnical isolate from Vrije Universiteit Amsterdam Medical Centre, NL), K. pneumonia JS-123 (clinical isolate from Utrecht Medical […]
(§2) (clinical isolate from Rijksinstituut voor Volksgezondheid en Milieu, NL), A. baumannii MDR (clinical isolate from Vrije Universiteit Amsterdam Medical Centre, NL), P. aeruginosa ATCC 27853, P. aeruginosa PAO1, P. aeruginosa NRZ-03961 (Reference strain from Das Nationale Referenzzentrum für gramnegative Krankenhauserreger, DE), P. aeruginosa M-120 (clinical isolate from Leiden University Medical Centre, NL) and S. aureus USA300 (clinical isolate from Texas Children's Hospital, USA). E. coli 25922 MCR1 was grown on LB agar supplemented with kanamycin. The inoculated agar plates were then incubated for 16 h at 37°C . Individually grown colonies were subsequently used to inoculate 3 mL aliquots of TSB that were then incubated at 37°C with shaking at 220 rpm. In parallel, the lipopeptide antibiotics to be assessed were serially diluted with Mueller-Hinton broth (MHB) in polypropylene 96-well plates (50 µL in each well).
(§3) Once the OD600 of the bacterial suspensions reached 0.5, the bacteria were diluted with MHB (final concentration 2 × 10^5 CFU mL−1) and added to the microplates containing the test compounds (50 µL to each well, final volume: 100 µL). The well-plates were sealed with an adhesive membrane and after 16 h of incubation at 37°C with shaking at 220 rpm the wells were visually inspected for bacterial growth. MIC values reported are based on three technical replicates and defined as the lowest concentration of the compound that prevented visible growth of bacteria. […]

For the next test, the system named is K. pneumoniae ATCC 11228. Here is the method:
as §1, §2, §3

The test system of the next test is E. coli ATCC 25922. Here is the method:
as §1, §2, §3

For the next test, the system named is A. baumannii ATCC 17961. Here is the method: as §1, §2, §3
The subject of a further test is E. coli EQAS MCR-2. The settings on record: Ec EQAS MCR-2; broth microdilution (CLSI), MHB, 16 h 37 °C, three technical replicates. Here is the method: as §1, §2, §3
In general terms: In broth dilution the organism is exposed to a series of concentrations in liquid medium.

Another test relates to K. pneumoniae ATCC 13883. Here is the method: as §1, §2, §3
Another test has as its system K. pneumoniae JS-123. Here is the method:
as §1, §2, §3

For the next test, the system named is A. baumannii 2018-006. Here is the method:
as §1, §2, §3

Another test deals with A. baumannii ATCC 17978. Here is the method: as §1, §2, §3
The next test concerns P. aeruginosa NRZ-03961. Here is the method: as §1, §2, §3
The next test has as its system P. aeruginosa PAO1. Here is the method: as §1, §2, §3
In a further test the test system is P. aeruginosa M-120. Here is the method: as §1, §2, §3
A further test has as its system S. aureus USA300. Here is the method: as §1, §2, §3
The next test relates to P. aeruginosa ATCC 27853. Here is the method:
as §1, §2, §3

The subject of a further test is K. pneumoniae 2048. Here is the method: as §1, §2, §3
The test system of test [1] is E. coli MCR-1 (clinical isolate). Here is the method:
as §1, §2, §3

A further test has as its system E. coli ATCC 25922 MCR-1. The conditions noted are these: Ec ATCC 25922 MCR-1; broth microdilution (CLSI), MHB, 16 h 37 °C, three technical replicates. Here is the method: as §1, §2, §3

Converted amounts (≈) assume the structure as drawn. Where two headings read alike, the source gives them in different places. Positions of bridges follow the written chain, without caps; N, C: chain ends. Non-standard residues stand in square brackets, D forms with d. Residues, ends and D or L forms follow the SMILES beside them. ξ: configuration not given here. *: point of attachment. Hexanoyl(4ξ-Me) = CCC(C)CCC(=O)*; dOrn = NCCC[C@@H](N)C(=O)O; Orn = NCCC[C@H](N)C(=O)O

For orientation: MIC means the least concentration at which growth counts as inhibited. Turning to colistin [reference compound], the MIC is under 0.25 µg/mL against A. baumannii MDR (Ab MDR, broth microdilution (CLSI), MHB, 16 h 37 °C, three technical replicates); under 0.25 µg/mL in the test with K. pneumoniae ATCC 11228 (Kp ATCC 11228, broth microdilution (CLSI), MHB, 16 h 37 °C, three technical replicates); 0.25 to 0.5 µg/mL in the test on E. coli ATCC 25922 (Ec ATCC 25922, broth microdilution (CLSI), MHB, 2 × 10^5 CFU/mL, 16 h 37 °C, visual read-out, three technical replicates); under 0.25 µg/mL against A. baumannii ATCC 17961 (Ab ATCC 17961, broth microdilution (CLSI), MHB, 16 h 37 °C, three technical replicates); 4 µg/mL against E. coli EQAS MCR-2; 0.25 µg/mL in the test on K. pneumoniae ATCC 13883 (Kp ATCC 13883, broth microdilution (CLSI), MHB, 16 h 37 °C, three technical replicates). In addition, the MIC in the test on K. pneumoniae JS-123 (Kp JS-123, broth microdilution (CLSI), MHB, 16 h 37 °C, three technical replicates) was under 0.25 µg/mL; against A. baumannii 2018-006 (Ab 2018-006, broth microdilution (CLSI), MHB, 16 h 37 °C, three technical replicates), under 0.25 µg/mL; with A. baumannii ATCC 17978 (Ab ATCC 17978, broth microdilution (CLSI), MHB, 16 h 37 °C, three technical replicates), under 0.25 µg/mL; against P. aeruginosa NRZ-03961 (Pa NRZ-03961, broth microdilution (CLSI), MHB, 16 h 37 °C, three technical replicates), 0.25 to 0.5 µg/mL; against P. aeruginosa PAO1 (Pa PAO1, broth microdilution (CLSI), MHB, 16 h 37 °C, three technical replicates) it was 0.25 to 0.5 µg/mL; against P. aeruginosa M-120 (Pa M-120, broth microdilution (CLSI), MHB, 16 h 37 °C, three technical replicates) it was under 0.25 µg/mL. Moreover, the MIC in the test on S. aureus USA300 (Sa USA300, broth microdilution (CLSI), MHB, 16 h 37 °C, three technical replicates) is over 64 µg/mL; in the test with P. aeruginosa ATCC 27853 (Pa ATCC 27853, broth microdilution (CLSI), MHB, 16 h 37 °C, three technical replicates) it was under 0.25 µg/mL; in the test with K. pneumoniae 2048 (Kp 2048, broth microdilution (CLSI), MHB, 16 h 37 °C, three technical replicates) it was 0.5 to 1 µg/mL; in test [1] (Ec MCR-1, broth microdilution (CLSI), MHB, 16 h 37 °C, three technical replicates) it was 2 to 4 µg/mL.

As for `CCC(C)CCC(=O)N[C@H](CC(N)=O)C(=O)N[C@H](Cc1ccc(O)cc1)C(=O)N[C@H](Cc1c[nH]c2ccccc12)C(=O)N[C@H](CCCN)C(=O)N[C@@H](CCCN)C(=O)NCC(=O)N[C@H](CCCN)C(=O)N[C@@H](Cc1c[nH]c2ccccc12)C(=O)N[C@H]1COC(=O)[C@H](CO)NC(=O)CNC(=O)[C@H]([C@@H](C)CC)NC1=O` (stereo partly drawn) [Ser9-Brev (3), Ser9-Brevicidine] ({Hexanoyl(4ξ-Me)}-[dN][dY][dW][dOrn][Orn]G[dOrn]WSIGS; ester 9-C), the MIC is 1 to 2 µg/mL against A. baumannii MDR (MDR, 16 h); 2 µg/mL (≈ 1.33 µM) in the test with K. pneumoniae ATCC 11228 (ATCC 11228, 16 h); 4 µg/mL (≈ 2.66 µM) in the test on E. coli ATCC 25922 (ATCC 25922, 16 h); 0.5 to 1 µg/mL against A. baumannii ATCC 17961 (ATCC 17961, 16 h); 4 to 8 µg/mL against E. coli EQAS MCR-2; 2 µg/mL (≈ 1.33 µM) against K. pneumoniae ATCC 13883 (ATCC 13883, 16 h). Moreover, the MIC against K. pneumoniae JS-123 (JS-123, 16 h) is 2 µg/mL (≈ 1.33 µM); in the test on A. baumannii 2018-006 (2018-006, 16 h) it was 2 µg/mL (≈ 1.33 µM); in the test on A. baumannii ATCC 17978 (ATCC 17978, 16 h) it was 2 µg/mL (≈ 1.33 µM); against P. aeruginosa NRZ-03961 (NRZ-03961, 16 h), 4 µg/mL (≈ 2.66 µM); against P. aeruginosa PAO1 (PAO1, 16 h), 2 to 4 µg/mL; against E. coli ATCC 25922 MCR-1, 4 µg/mL (≈ 2.66 µM). Besides, the minimal inhibitory concentration (MIC) against P. aeruginosa M-120 (M-120, 16 h) was 2 µg/mL (≈ 1.33 µM); with S. aureus USA300 (USA300, 16 h), over 64 µg/mL; in the test on P. aeruginosa ATCC 27853 (ATCC 27853, 16 h), 1 µg/mL (≈ 0.664 µM); in the test with K. pneumoniae 2048 (2048, 16 h), 4 µg/mL (≈ 2.66 µM); in [1] (MCR-1 (clinical isolate, 16 h)) it was 2 µg/mL (≈ 1.33 µM).
